Where a name gives a salt, the structure may show the parent alone.
Assays:
Format in all cases: biochemical
human mTOR = human mTOR (Homo sapiens (Human), UniProt P42345); experiment: mTOR kinase assay (TR-FRET, for comparative purposes); conditions: mean inhibition at 1 μM test compound; 40 μM ATP
human FGFR-3 = human FGFR-3 (Homo sapiens (Human), UniProt P22607); experiment: FGFR-3 kinase assay (TR-FRET); conditions: 10 μM ATP; 15 min pre-incubation with enzyme; compounds of the invention
human FGFR-1 = human FGFR-1 (Homo sapiens, UniProt P11362); experiment: FGFR-1 high ATP kinase assay (TR-FRET); conditions: 2 mM ATP; 15 min pre-incubation with enzyme; compounds of the invention
Sequence of human FGFR-1 (P11362 22-822 limits assumed): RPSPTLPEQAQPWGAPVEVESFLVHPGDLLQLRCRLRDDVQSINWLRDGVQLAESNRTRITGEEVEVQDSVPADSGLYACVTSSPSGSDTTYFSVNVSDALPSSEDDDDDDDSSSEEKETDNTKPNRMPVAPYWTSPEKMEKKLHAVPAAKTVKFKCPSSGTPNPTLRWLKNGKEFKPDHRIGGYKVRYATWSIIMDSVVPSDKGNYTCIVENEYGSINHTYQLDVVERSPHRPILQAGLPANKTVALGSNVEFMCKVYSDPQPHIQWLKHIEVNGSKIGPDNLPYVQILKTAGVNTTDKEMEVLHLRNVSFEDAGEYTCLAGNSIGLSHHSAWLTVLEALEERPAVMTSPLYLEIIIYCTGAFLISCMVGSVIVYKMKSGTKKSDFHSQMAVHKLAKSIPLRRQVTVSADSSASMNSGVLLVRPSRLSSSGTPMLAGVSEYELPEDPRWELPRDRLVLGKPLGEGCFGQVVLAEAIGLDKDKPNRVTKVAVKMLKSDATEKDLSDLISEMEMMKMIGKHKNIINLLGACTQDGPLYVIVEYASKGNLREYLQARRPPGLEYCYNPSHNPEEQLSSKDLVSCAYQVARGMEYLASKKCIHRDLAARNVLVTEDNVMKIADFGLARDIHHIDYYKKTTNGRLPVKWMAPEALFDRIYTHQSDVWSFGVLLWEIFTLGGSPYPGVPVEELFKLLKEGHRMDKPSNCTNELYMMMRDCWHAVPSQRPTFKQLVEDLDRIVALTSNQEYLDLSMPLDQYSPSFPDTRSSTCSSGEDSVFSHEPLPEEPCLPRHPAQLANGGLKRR

Sequence of human FGFR-3 (P22607 397-806): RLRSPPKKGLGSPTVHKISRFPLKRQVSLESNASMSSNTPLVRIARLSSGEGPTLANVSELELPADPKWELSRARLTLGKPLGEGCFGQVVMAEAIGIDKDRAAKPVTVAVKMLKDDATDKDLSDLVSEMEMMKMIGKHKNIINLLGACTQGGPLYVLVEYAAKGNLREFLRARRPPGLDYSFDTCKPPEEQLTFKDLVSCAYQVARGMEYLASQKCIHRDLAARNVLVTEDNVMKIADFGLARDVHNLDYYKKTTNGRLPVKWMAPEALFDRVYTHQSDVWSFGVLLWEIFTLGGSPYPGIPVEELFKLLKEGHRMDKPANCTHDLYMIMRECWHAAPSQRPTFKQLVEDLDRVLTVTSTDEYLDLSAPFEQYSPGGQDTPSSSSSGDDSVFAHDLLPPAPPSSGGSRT
Sequence of human mTOR (P42345 1360-2549): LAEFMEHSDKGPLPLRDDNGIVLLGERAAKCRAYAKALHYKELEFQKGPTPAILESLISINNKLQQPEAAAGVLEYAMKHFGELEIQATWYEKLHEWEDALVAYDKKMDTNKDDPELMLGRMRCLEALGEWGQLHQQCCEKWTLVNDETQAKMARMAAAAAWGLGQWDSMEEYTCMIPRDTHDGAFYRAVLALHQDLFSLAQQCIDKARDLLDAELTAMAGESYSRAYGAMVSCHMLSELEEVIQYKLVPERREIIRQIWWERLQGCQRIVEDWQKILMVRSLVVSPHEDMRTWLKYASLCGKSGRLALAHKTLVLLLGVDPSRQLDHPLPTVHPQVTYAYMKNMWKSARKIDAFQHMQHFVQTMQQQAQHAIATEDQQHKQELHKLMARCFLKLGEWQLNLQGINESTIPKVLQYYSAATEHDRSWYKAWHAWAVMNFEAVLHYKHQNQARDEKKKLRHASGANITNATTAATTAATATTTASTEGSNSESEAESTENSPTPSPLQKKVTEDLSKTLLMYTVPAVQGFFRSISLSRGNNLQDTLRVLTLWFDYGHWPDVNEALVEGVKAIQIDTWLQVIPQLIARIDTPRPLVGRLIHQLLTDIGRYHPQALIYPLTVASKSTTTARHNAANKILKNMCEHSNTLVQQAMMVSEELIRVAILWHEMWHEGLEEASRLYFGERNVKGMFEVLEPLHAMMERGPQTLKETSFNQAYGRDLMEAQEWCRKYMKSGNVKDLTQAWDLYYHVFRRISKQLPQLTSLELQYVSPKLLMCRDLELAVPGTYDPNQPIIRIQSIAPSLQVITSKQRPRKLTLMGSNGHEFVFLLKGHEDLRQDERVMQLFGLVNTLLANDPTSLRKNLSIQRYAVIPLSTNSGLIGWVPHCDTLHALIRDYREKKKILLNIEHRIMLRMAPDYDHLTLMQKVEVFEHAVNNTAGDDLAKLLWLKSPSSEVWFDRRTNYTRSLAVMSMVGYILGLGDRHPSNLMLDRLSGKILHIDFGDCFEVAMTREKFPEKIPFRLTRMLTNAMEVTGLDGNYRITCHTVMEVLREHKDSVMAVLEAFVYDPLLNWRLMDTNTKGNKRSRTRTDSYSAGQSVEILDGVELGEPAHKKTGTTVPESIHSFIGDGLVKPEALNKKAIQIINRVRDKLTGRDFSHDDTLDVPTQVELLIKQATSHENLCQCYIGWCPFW

Row | SMILES | mTOR inhibition @ 1 μM (human mTOR) | IC50 (human FGFR-3) | IC50 (human FGFR-1)
1 | CCOCc1c(-c2cc3cc(C)cc(OC)c3s2)c2c(N)ncnn2c1CNCC(N)=O [Example 9, N^2-{[4-Amino-6-(ethoxymethyl)-5-(7-methoxy-5-methyl-1-benzothiophen-2-yl)pyrrolo[2,1-f]-[1,2,4]triazin-7-yl]methyl}glycinamide dihydrochloride] | no inhib. effect detect. |  | 
2 | CCOCc1c(-c2cc3cc(C)cc(OC)c3s2)c2c(N)ncnn2c1CN1CCNCC1 [Example 18, 6-(Ethoxymethyl)-5-(7-methoxy-5-methyl-1-benzothiophen-2-yl)-7-(piperazin-1-ylmethyl)pyrrolo-[2,1-f][1,2,4]triazin-4-amine] | no inhib. effect detect. |  | 
3 | COc1cc(C)cc2cc(-c3c(CO)c(Cl)n4ncnc(N)c34)sc12 [Example 79, [4-Amino-7-chloro-5-(7-methoxy-5-methyl-1-benzothiophen-2-yl)pyrrolo[2,1-f][1,2,4]triazin-6-yl]methanol] |  | 17.9 nM | 12.6 nM
4 | COc1cc(C)cc2cc(-c3c(CNCC(C)(C)O)c(Cl)n4ncnc(N)c34)sc12 [Example 81, 1-({[4-Amino-7-chloro-5-(7-methoxy-5-methyl-1-benzothiophen-2-yl)pyrrolo[2,1-f][1,2,4]triazin-6-yl]methyl}amino)-2-methylpropan-2-ol formiate] |  | 0.5 nM | 1.9 nM
5 | COc1cc(C)cc2cc(-c3c(CNCC(C)(C)O)c(Cl)n4ncnc(N)c34)sc12 [Example 82, 1-({[4-Amino-7-chloro-5-(7-methoxy-5-methyl-1-benzothiophen-2-yl)pyrrolo[2,1-f][1,2,4]triazin-6-yl]methyl}amino)-2-methylpropan-2-ol] |  | 16 nM | 3.4 nM
6 | COc1cc(C)cc2cc(-c3c(C)c(CN4CCNCC4)n4ncnc(N)c34)sc12 [Example 84, 5-(7-Methoxy-5-methyl-1-benzothiophen-2-yl)-6-methyl-7-(piperazin-1-ylmethyl)pyrrolo[2,1-f]-[1,2,4]triazin-4-amine formiate] |  | 16.5 nM | 3.7 nM
7 | CCOCc1c(-c2cc3cc(C)cc(OC)c3s2)c2c(N)ncnn2c1C(C)O (centres unmarked) [Example 90, 1-[4-Amino-6-(ethoxymethyl)-5-(7-methoxy-5-methyl-1-benzothiophen-2-yl)pyrrolo[2,1-f][1,2,4]-triazin-7-yl]ethanol] |  | 11 nM | 9.9 nM
8 | CCOCc1c(-c2cc3cc(C)cc(OC)c3s2)c2c(N)ncnn2c1C(O)C1CC1 (centres unmarked) [Example 91, [4-Amino-6-(ethoxymethyl)-5-(7-methoxy-5-methyl-1-benzothiophen-2-yl)pyrrolo[2,1-f][1,2,4]-triazin-7-yl](cyclopropyl)methanol] |  | 31.1 nM | 52.9 nM
9 | CCOCc1c(-c2cc3cc(C)cc(OC)c3s2)c2c(N)ncnn2c1CN1CCNC(=O)C1(C)C [Example 95] |  | 28.7 nM | 17 nM
10 | CCOCc1c(-c2cc3cc(C)cc(OC)c3s2)c2c(N)ncnn2c1CN1CCS(=O)(=O)CC1 [Example 99] |  | 36.9 nM | 24.8 nM
11 | CCOCc1c(-c2cc3cc(C)cc(OC)c3s2)c2c(N)ncnn2c1CN1CC(F)(F)C1 [Example 102] |  | 39.8 nM | 39.2 nM
12 | CCOCc1c(-c2cc3cc(C)cc(OC)c3s2)c2c(N)ncnn2c1C(=O)N[C@@H]1CCNC1=O [Example 106, 4-Amino-6-(ethoxymethyl)-5-(7-methoxy-5-methyl-1-benzothiophen-2-yl)-N-[(3R)-2-oxopyrrolidin-3-yl]pyrrolo[2,1-f][1,2,4]triazine-7-carboxamide] |  | 7.1 nM | 6.4 nM
13 | CCOCc1c(-c2cc3cc(C)cc(OC)c3s2)c2c(N)ncnn2c1C(=O)N(C)C [Example 114] |  | 9.6 nM | 11.2 nM
14 | CCOCc1c(-c2cc3cc(C)cc(OC)c3s2)c2c(N)ncnn2c1C(=O)N1CNC(=O)C1 [Example 117] |  | 5.3 nM | 8.8 nM

From patent US9206184B2, “Disubstituted benzothienyl-pyrrolotriazines and uses thereof” (BAYER INTELLECTUAL PROPERTY GmbH, priority 2011, dated 2015)
